Results: patent US8354539B2, “Indole derivatives as IKK2 inhibitors” (Glaxo Group Limited, priority 2009, dated 2013)

Tested on: polychromatic erythrocytes from rat bone marrow
Test: Bone marrow micronucleus assay in rats
Conditions: 20 mg/kg/day oral, once only, male rats, positive control
Procedure: The objective of this study was to assess the potential of 5-[2-(1-methylethyl)-2,3-dihydro-1H-isoindol-5-yl]-3-(1-{[2-(methyloxy)ethyl]sulfonyl}-4-piperidinyl)-1H-indole-7-carboxamide in induce structural chromosomal damage and/or aneuploidy in vivo, in polychromatic erythrocytes from rat bone marrow, when administered to rats for two consecutive days.
Crl: CD(SD) rats were used in this study.
Doses of 500, 1000, 2000 mg/kg/day of 5-[2-(1-methylethyl)-2,3-dihydro-1H-isoindol-5-yl]-3-(1-{[2-(methyloxy)ethyl]sulfonyl}-4-piperidinyl)-1H-indole-7-carboxamide, or vehicle (0.5% (w/v) aqueous hydroxypropylmethylcellulose containing 0.1% (w/v) Tween 80), were given orally (by gavage) to groups of 3 male and 3 female rats. […]
Doses of 1000 or 2000 mg/kg/day—5-[2-(1-methylethyl)-2,3-dihydro-1H-isoindol-5-yl]-3-(1-{[2-(methyloxy)ethyl]sulfonyl}-4-piperidinyl)-1H-indole-7-carboxamide or vehicle (0.5% (w/v) aqueous hydroxypropylmethylcellulose containing 0.1% (w/v) Tween 80) were given orally, by gavage, on two consecutive days to groups of 6 male rats. […] Smears were stained with acridine orange prior to analysis with fluorescense microscopy to determine the proportion of polychromatic erythrocytes in the total erythrocyte count (% PCE) and the number of micronucleated polychromatic erythrocytes (MPCE) per 2000 PCE analysed.

## O=P1(N(CCCl)CCCl)NCCCO1 (centres unmarked) [Cyclophosphamide, cyclophosphamide]
  Group Mean % PCE: 46%
  Group Mean MPCE: 51.87 per 2000 PCE analysed
